Reference: patent US5385931A, “Sulfonamides derived from benzocyclic or benzoheterocyclic acids, their preparation and application in therapeutics” (Pierre Fabre Medicament, priority 1989, dated 1995)
≈ marks a conversion by molar mass, not a printed value.

Assays:
Solubility in water = type: physicochemical; details: for solubility: read-out: soluble in water to give a solution of
Solubility in DMSO = type: physicochemical
[1] = system: blood platelet aggregation induced by arachidonic acid; assay: In vitro rabbit platelet aggregation induced by arachidonic acid; type: cell-based, New Zealand rabbits; details: arachidonic acid 50 to 100 micromoles; for inhibition at 100 µM / inhibition at 10 µM: Oryctolagus cuniculus, Platelet; for inhibition at 100 µM: final concentration of compound 10^-4 M; for inhibition at 10 µM: final concentration of compound 10^-5 M
Method: (§1) Blood is taken from white male New Zealand rabbits which have not received any treatment capable of disrupting the platelet functions.
(§2) After having allowed the first drops to flow freely, the blood is collected in plastic tubes containing 3.8% (wt/v) trisodium citrate 5.5 H2 O, the citrate/blood ratio being 1 volume of citrate per 9 volumes of blood.
(§3) The blood platelet aggregation study is carried out starting from plasmas rich in platelets obtained by centrifuging the above blood samples at low speed. It is measured with the aid of a Mustard aggregometer at a wavelength of 609 nm with a stirring speed of 1,100 revolutions/min.
(§4) The products to be studied are dissolved in polyethylene glycol 300 and pre-incubated for 1 min at 37° C. under a volume of 10 microliters,in a mixture of 300 microliters of plasma rich in platelets and 90 microliters of Tyrode's solution without calcium, pH=7.4. (Corresponding controls are produced by pre-incubating the vehicle on its own instead of solutions of products to be studied).
(§5) The blood platelet aggregation is initiated by the addition either of U.46619 (final concentrations: 1.05 to 2.44 micromoles) or of arachidonic acid (final concentrations: 50 to 100 micromoles).
(§6) Starting from the parameter of the maximum percentage aggregation, the anti-aggregant activity of a product is calculated using the formula: [formula]
The percentage inhibition of the aggregation with arachidonic acid is given in Table II for compounds 2 and 3 by way of non-limiting examples: […]

conventional mice = assay: Toxicology, intraperitoneal, mice; type: in vivo; details: 500 mg per kilo intraperitoneally
Method: The chemical compounds described above were subjected to toxicity checks. This study was carried out on conventional mice weighing from 20 to 22 g. The compounds of general formula I were administered intraperitoneally.

[2] = system: blood platelet aggregation induced by U.46619; assay: In vitro rabbit platelet aggregation induced by U.46619; type: cell-based, New Zealand rabbits; details: Oryctolagus cuniculus; rabbit platelet-rich plasma; U.46619 1.05 to 2.44 micromoles; pre-incubated 1 min at 37° C., pH 7.4
Method: as §1, §2, §3, §4, §5, §6
One curve: anti-aggregant activity=f (final concentration) is plotted for each product and the 50% inhibitory concentration determined from the graph.
In the case of aggregation with U.46619, the IC50 are given in Table I for compounds 1, 2, 3, 7 and 11 by way of non-limiting example: […]

[3] = system: platelet aggregation induced by U.46619; assay: Ex vivo inhibition of U.46619-induced platelet aggregation after oral administration in rabbits; parameters: species or system New Zealand rabbits; details: t=+90 min relative to control curve at t=0
Method: b) Ex vivo action: inhibition of anti-aggregant effects using U.46619 in rabbits.
Because of their powerful activity in vitro, the anti-aggregant effects ex vivo were studied in rabbits. The substances of general formula I, which are the subject of the present invention, are administered orally as a 1% suspension in carboxymethylcellulose to natural male New Zealand rabbits weighing 2.5 to 3 kg after going without nourishment for about 18 h. Blood samples were taken by cardiac puncture at time 0 and after 90 min. The aggregant U.46619 was used under the same conditions as above and the measurement of the aggregation was carried out using the same technique.
The results are expressed in Table III in terms of percentage inhibition of the maximum amplitude of the aggregation curve at t=+90 min relative to the control curve at t=0 and are given for compounds 2 and 3 by way of non-limiting example: […]

Compound: O=C(CNS(=O)(=O)c1ccc(Cl)cc1)c1ccc2c(c1)CC(C(=O)O)C2 (stereo not drawn) [Compound 28, 5-(Parachlorobenzenesulphonamidoacetyl)-2-indanecarboxylic acid]
- solubility in water (Solubility in water): insoluble in water
- soluble in DMSO to give a solution of (Solubility in DMSO): 15%

Compound: CON=C(CNS(=O)(=O)c1ccc(Cl)cc1)c1ccc2c(c1)CC(C(=O)O)O2 (stereo not drawn) [Compound 14, 5-(2-parachlorobenzenesulphonamido-1-methoxyiminoethyl)-2,3-dihydro-2-benzofurancarboxylic acid]
- soluble in DMSO to give a solution of (Solubility in DMSO): 10%

Compound: O=C(O)C1Cc2cc(C(O)CNS(=O)(=O)c3ccc(Cl)cc3)ccc2O1 (stereo not drawn) [Compound 3, 5-(2-parachlorobenzenesulphonamido-1-hydroxyethyl)-2,3-dihydro-2-benzofurancarboxylic acid]
- inhibition at 100 µM [1]: -86%
- inhibition at 10 µM [1]: -7%
- % inhibition of platelet aggregation ([1]; final concentration of compound 5.10^-5 M): -78%
- fatality (conventional mice): not a single fatality
- toxicity (conventional mice): atoxic
- IC50 [2]: 5000 nM
- soluble in DMSO to give a solution of (Solubility in DMSO): 10%
- % inhibition of aggregation ([3]; 5 mg/kg orally): -43%
- % inhibition of aggregation ([3]; 10 mg/kg orally): -74%

Compound: O=C(O)c1cc2cc(CCNS(=O)(=O)c3ccc(Cl)cc3)ccc2o1 [Compound 11, 5-(2-Parachlorobenzenesulphonamidoethyl)-2-benzofurancarboxylic acid]
- IC50 [2]: 2000 nM
- soluble in DMSO to give a solution of (Solubility in DMSO): 5%

Compound: O=C(CNS(=O)(=O)c1c(F)c(F)c(F)c(F)c1F)c1ccc2c(c1)CC(C(=O)O)O2 (stereo not drawn) [Compound 24, 5-Pentafluorobenzenesulphonamidoacetyl-2,3-dihydro-2-benzofurancarboxylic acid]
- solubility in water (Solubility in water): insoluble in water
- soluble in DMSO to give a solution of (Solubility in DMSO): 20%

Compound: O=C(O)C1Oc2ccc(CCNS(=O)(=O)c3ccc(Cl)cc3)cc2O1 (stereo not drawn) [Compound 8, 5-(2-Parachlorobenzenesulphonamidoethyl)-1,3-benzodioxole-2-carboxylic acid]
- soluble in DMSO to give a solution of (Solubility in DMSO): 20%

Compound: O=C(O)C1Cc2cc(C(CNS(=O)(=O)c3ccc(Cl)cc3)=NO)ccc2O1 (stereo not drawn) [Compound 13]
- soluble in DMSO to give a solution of (Solubility in DMSO): 10%

Compound: O=C(O)C1Cc2cc(CCNS(=O)(=O)c3ccc(Cl)cc3)ccc2O1 (stereo not drawn) [Compound 4, 5-(2-parachlorobenzenesulphonamidoethyl)-2,3-dihydro-2-benzofurancarboxylic acid monohydrate]
- soluble in DMSO to give a solution of (Solubility in DMSO): 10%

Compound: O=C(O)C1Cc2ccc(CCNS(=O)(=O)c3ccc(Cl)cc3)cc2C1 (stereo not drawn) [Compound 9, 5-(2-parachlorobenzenesulphonamidoethyl)-2-indanecarboxylic acid]
- soluble in DMSO to give a solution of (Solubility in DMSO): 10%

Compound: CCOC(=O)C1CCc2cc(C(=O)CNS(=O)(=O)c3ccc(Cl)cc3)ccc2O1 (stereo not drawn) [Compound 20, ethyl 6-(parachlorobenzenesulphonamidoacetyl)-2-chromancarboxylate]
- solubility in water (Solubility in water): insoluble in water
- soluble in DMSO to give a solution of (Solubility in DMSO): 25%

Compound: O=C(O)C1Cc2cc(CCNS(=O)(=O)c3ccc(Cl)cc3)ccc2O1 (stereo not drawn) [Compound 17, Sodium 5-(2-parachlorobenzenesulphonamidoethyl)-2,3-dihydro-2-benzofurancarboxylate]
- solubility (Solubility in water): 15000 µg/mL

Compound: O=C(CNS(=O)(=O)c1ccc(Cl)cc1)c1ccc2c(c1)CCC(C(=O)O)O2 (racemic) [Compound 27, dl-Lysine 6-(parachlorobenzenesulphonamidoacetyl)-2-chromancarboxylate]
- solubility (Solubility in water): 10000 µg/mL (≈ 24.4 mM)

Compound: Cc1ccc(S(=O)(=O)N(C)CC(=O)c2ccc3c(c2)CC(C(=O)O)O3)cc1 (stereo not drawn) [Compound 16, 5-(N-methylparatoluenesulphonamidoacetyl)-2,3-dihydro-2-benzofurancarboxylic acid]
- soluble in DMSO to give a solution of (Solubility in DMSO): 10%

Compound: O=C(O)C1Cc2cc(CCNS(=O)(=O)c3ccc(Cl)cc3)ccc2S1 (stereo not drawn) [Compound 10, 5-(2-Parachlorobenzenesulphonamidoethyl)-2,3-dihydro-2-benzothiophenecarboxylic acid]
- soluble in DMSO to give a solution of (Solubility in DMSO): 20%

Compound: O=C(O)C1CCc2cc(CCNS(=O)(=O)c3ccc(Cl)cc3)ccc2O1 (stereo not drawn) [Compound 7, 6-(2-Parachlorobenzenesulphonamidoethyl)-2-chromancarboxylic acid]
- IC50 [2]: 500 nM
- soluble in DMSO to give a solution of (Solubility in DMSO): 20%

Compound: O=C(O)C1Cc2cc(CCNS(=O)(=O)c3ccc(Cl)cc3)ccc2O1 (stereo not drawn) [Compound 2, 5-(2-parachlorobenzenesulphonamidoethyl)-2,3-dihydro-2-benzofurancarboxylic acid]
- inhibition at 100 µM [1]: -100%
- inhibition at 10 µM [1]: -79%
- % inhibition of platelet aggregation ([1]; final concentration of compound 5.10^-6 M): -31%
- fatality (conventional mice): not a single fatality
- toxicity (conventional mice): atoxic
- IC50 [2]: 500 nM
- soluble in DMSO to give a solution of (Solubility in DMSO): 10%
- % inhibition of aggregation ([3]; 5 mg/kg orally): -64%
- % inhibition of aggregation ([3]; 10 mg/kg orally): -98%

Compound: O=C(O)C1CCc2cc(CCNS(=O)(=O)c3ccc(Cl)cc3)ccc2O1 (stereo not drawn) [Compound 26, (dl)-Lysine 6-(2-parachlorobenzenesulphonamidoethyl)-2-chromancarboxylate]
- solubility (Solubility in water): 10000 µg/mL (≈ 25.3 mM)

Compound: O=C(CNS(=O)(=O)c1ccc(Cl)cc1)c1ccc2c(c1)CC(C(=O)O)O2 (stereo not drawn) [Compound 25, (dl)-Lysine 5-parachlorobenzenesulphonamidoacetyl-2,3-dihydro-2-benzofurancarboxylate trihydrate]
- solubility (Solubility in water): 10000 µg/mL

Compound: CC(NS(=O)(=O)c1ccc(Cl)cc1)C(=O)c1ccc2c(c1)CC(C(=O)O)O2 (stereo not drawn) [Compound 5, 5-(α-methylparachlorobenzenesulphonamidoacetyl)-2,3-dihydro-2-benzofurancarboxylic acid]
- soluble in DMSO to give a solution of (Solubility in DMSO): 10%

Compound: CC(NS(=O)(=O)c1ccc(Cl)cc1)C(O)c1ccc2c(c1)CC(C(=O)O)O2 (stereo not drawn) [Compound 6, 5-(2-Parachlorobenzenesulphonamido-1-hydroxypropyl)-2,3-dihydro-2-benzofurancarboxylic acid]
- soluble in DMSO to give a solution of (Solubility in DMSO): 5%

Compound: O=C(CNS(=O)(=O)c1ccc(Cl)cc1)c1ccc2c(c1)CCC(C(=O)O)O2 (stereo not drawn) [Compound 21, 6-(parachlorobenzenesulphonamidoacetyl)-2-chromancarboxylic acid]
- solubility in water (Solubility in water): insoluble in water
- soluble in DMSO to give a solution of (Solubility in DMSO): 25%

Compound: O=C(CNS(=O)(=O)c1ccccc1)c1ccc2c(c1)CC(C(=O)O)O2 (stereo not drawn) [Compound 22, 5-(benzenesulphonamidoacetyl)-2,3-dihydro-2-benzofurancarboxylic acid]
- solubility in water (Solubility in water): insoluble in water
- soluble in DMSO to give a solution of (Solubility in DMSO): 25%

Compound: COc1ccc(S(=O)(=O)NCC(=O)c2ccc3c(c2)CC(C(=O)O)O3)cc1 (stereo not drawn) [Compound 23, 5-paramethoxybenzenesulphonamidoacetyl-2,3-dihydro-2-benzofurancarboxylic acid]
- soluble in DMSO to give a solution of (Solubility in DMSO): 30%

Compound: O=C(CNS(=O)(=O)c1ccc(Cl)cc1)c1ccc2c(c1)CC(C(=O)O)O2 (stereo not drawn) [Compound 1, 5-(parachlorobenzenesulphonamidoacetyl)-2,3-dihydro-2-benzofurancarboxylicacid]
- fatality (conventional mice): not a single fatality
- toxicity (conventional mice): atoxic
- IC50 [2]: 600 nM
- soluble in DMSO to give a solution of (Solubility in DMSO): 10%

Compound: O=C(CNS(=O)(=O)c1ccc(Cl)cc1)c1ccc2c(c1)CC(C(=O)O)C2 (racemic) [Compound 29, dl-Lysine 5-(parachlorobenzenesulphonamidoacetyl)-2-indanecarboxylate]
- solubility (Solubility in water): 5000 µg/mL (≈ 12.7 mM)
